Measured values: US20200157144A1, “ANTIMICROBIAL PEPTIDOMIMETICS” (priority 2017, published 2020)
≈ marks a conversion by molar mass, not a printed value. Like-named read-outs stand apart in the source and are kept apart here. Square brackets hold non-standard residues; d marks the D form. Peptide text beside a SMILES is read from it. dBip(4'-Cl) = N[C@H](Cc1ccc(-c2ccc(Cl)cc2)cc1)C(=O)O

Experiments:
Assay in all cases: microbe, parasite or virus in culture
[1] = tested on: Mupirocin-susceptible MRSA ATCC-33592 (ST239); assay type: cell-based, Staphylococcus aureus; conditions: ATCC-33592; read-out: MIC
How it was run: (§1)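 Broth microdilution (CLSI M07-A9), cation-adj. MH2; ~1×10^6 CFU/mL; 100→0.195 μM, 2-fold, n=2; o/n 35° C, 220 RPM; OD600; MIC = lowest inhibitory μM.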

[2] = tested on: Mupirocin-susceptible MRSA ATCC-BAA-1681 (USA100); assay type: cell-based, Staphylococcus aureus; conditions: ATCC-BAA-1681; read-out: MIC
How it was run: as §1

[3] = tested on: Mupirocin-susceptible MRSA ATCC-BAA-1756 (USA300); assay type: cell-based, Staphylococcus aureus; conditions: ATCC-BAA-1756; read-out: MIC
How it was run: as §1

[4] = tested on: Mupirocin-susceptible MRSA ATCC-BAA-1754 (ST45); assay type: cell-based, Staphylococcus aureus; conditions: ATCC-BAA-1754; read-out: MIC
How it was run: as §1

[5] = tested on: Mupirocin-resistant MRSA ATCC-BAA-1708; assay type: cell-based, Staphylococcus aureus; conditions: ATCC-BAA-1708; read-out: MIC
How it was run: as §1

[6] = tested on: Mupirocin-susceptible MRSA ATCC-BAA-1707 (USA400); assay type: cell-based, Staphylococcus aureus; conditions: ATCC-BAA-1707; read-out: MIC
How it was run: as §1

[7] = tested on: Mupirocin-resistant MRSA ATCC-BAA-1750 (USA200); assay type: cell-based, Staphylococcus aureus; conditions: ATCC-BAA-1750; read-out: MIC
How it was run: as §1

[8] = tested on: Mupirocin-susceptible MRSA ATCC-BAA-2762 (EMRSA15, ST22); assay type: cell-based, Staphylococcus aureus; conditions: ATCC-BAA-2762; read-out: MIC
How it was run: as §1

[9] = tested on: Mupirocin-susceptible MRSA ATCC-700699 (VISA); assay type: cell-based, Staphylococcus aureus; conditions: ATCC-700699; read-out: MIC
How it was run: as §1

[10] = tested on: Mupirocin-resistant MRSA ATCC-BAA-1556; assay type: cell-based, Staphylococcus aureus
How it was run: as §1

[11] = tested on: S. aureus NARSA VRS11b; assay type: cell-based
Method: (§2) The antibacterial potency of Compound 34 was measured using the in vitro broth microdilution assay under assay conditions described by the Clinical and Laboratory Standards Institute. […] The test substance was dissolved in 100% DMSO (unless stated below), suspended completely by sonication or vortexing, diluted by 2-fold serial titrations in the same vehicle, for a total of 11 test concentrations. A 4 μL aliquot of each dilution was added to 196 μL of broth medium seeded with the organism suspension in wells of a 96 well plate (bacterial count: 2-8×10^5 colony forming units/mL final). The final volume was 200 μL in each well and the final DMSO concentration was 2%. The incubation time is 1 day at 36° C. All strains tested underwent aerobic respiration. Following incubation, the test plates were visually examined and wells were scored for growth or complete growth inhibition to define the minimum inhibitory concentration. Each test substance was evaluated in duplicate and the results below are the duplicate test values. Vehicle-control and an active reference agent were used as blank and positive controls, respectively.

[12] = tested on: S. aureus ECL 2963646; assay type: cell-based
Method: as §2

[13] = tested on: Staphylococcus aureus ATCC 19636; assay type: cell-based; conditions: ATCC 19636
Method: (§3) The antibacterial potency of Compound 34 was measured using the in vitro broth microdilution assay under assay conditions described by the Clinical and Laboratory Standards Institute. […] The test substance was dissolved in 100% DMSO (unless stated below), suspended completely by sonication or vortexing, diluted by 2-fold serial titrations in the same vehicle, for a total of 10 test concentrations (final concentrations: 100, 50, 25, 12.5, 6.25, 3.125, 1.56, 0.78, 0.39, 0.2 μM). A 4 μL aliquot of each dilution was added to 196 μL of broth medium seeded with the organism suspension in wells of a 96 well plate (bacterial count: 2-8×10^5 colony forming units/mL final). The final volume was 200 μL in each well and the final DMSO concentration was 2 percent. The incubation time is either 1 or 2 days at 36° C. All strains tested underwent aerobic respiration, except for ATCC BAA-1805 and ATCC 29399. Following incubation, the test plates were visually examined and wells were scored for growth or complete growth inhibition to define the minimum inhibitory concentration. Each test substance was evaluated in duplicate and the results below are the duplicate test values.

[14] = tested on: Staphylococcus epidermidis ATCC 12228; assay type: cell-based; conditions: ATCC 12228
Method: as §3

[15] = tested on: Staphylococcus aureus ATCC BAA-1717; assay type: cell-based; conditions: ATCC BAA-1717
Method: as §3

N=C(N)NCCC[C@@H](NC(=O)[C@@H](Cc1ccc(-c2ccc(Cl)cc2)cc1)NC(=O)[C@@H](CCCNC(=N)N)NC(=O)[C@H](N)Cc1ccc(-c2ccc(Cl)cc2)cc1)C(N)=O [Compound 34] (H-[dBip(4'-Cl)][dR][dBip(4'-Cl)][dR]-NH2)
MIC [1]: 3.125 µM (≈ 2.64 µg/mL)
MIC [2]: 3.125 µM (≈ 2.64 µg/mL)
MIC [3]: 1.56 µM (≈ 1.32 µg/mL)
MIC [4]: 3.125 µM (≈ 2.64 µg/mL)
MIC [5]: 1.56 µM (≈ 1.32 µg/mL)
MIC [6]: 3.125 µM (≈ 2.64 µg/mL)
MIC [7]: 1.56 µM (≈ 1.32 µg/mL)
MIC [8]: 3.125 µM (≈ 2.64 µg/mL)
MIC [9]: 3.125 µM (≈ 2.64 µg/mL)
MIC ([10]; Mupirocin-resistant MRSA ATCC-BAA-1556, cation-adjusted MH2 broth, overnight 35° C., OD600, read-out: MIC): 3.125 µM (≈ 2.64 µg/mL)
improvement of bioactivity (lower MIC values) as compared to Compound 2 ([10]; against Mupirocin-resistant MRSA strains): about 4 fold
MIC ([11]; NARSA VRS11b, read-out: MIC): 1.18 µM
MIC ([11]; S. aureus NARSA VRS11b, CAMHB II): 1.0 mg/L
MIC ([12]; ECL 2963646, read-out: MIC): 2.37 µM
MIC ([12]; S. aureus ECL 2963646, CAMHB II): 2.0 mg/L
MIC [13]: 3.13 µM (≈ 2.64 µg/mL)
MIC [14]: 3.13 µM (≈ 2.64 µg/mL)
MIC [15]: 3.13 µM (≈ 2.64 µg/mL)
